Laboratory results taken from PubChem BioAssay (NCI).
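Test compounds were applied to cells in 96-well plates for 48 hours at 5 doses. TGI: concentration producing complete growth inhibition.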

How the values were obtained:
Test in all cases: growth of human tumour cells (NCI), 48 h
CCRF-CEM leukemia = system: CCRF-CEM leukemia
SNB-75 CNS = system: SNB-75 CNS
T-47D breast = system: T-47D breast
U251 CNS = system: U251 CNS
MDA-MB-231 breast = system: MDA-MB-231 breast
UO-31 renal = system: UO-31 renal
MDA-MB-435 = system: MDA-MB-435
SNB-19 CNS = system: SNB-19 CNS
TK-10 renal = system: TK-10 renal
SK-MEL-2 melanoma = system: SK-MEL-2 melanoma
UACC-62 melanoma = system: UACC-62 melanoma
K-562 leukemia = system: K-562 leukemia
LOX IMVI melanoma = system: LOX IMVI melanoma
RPMI-8226 leukemia = system: RPMI-8226 leukemia
CAKI-1 renal = system: CAKI-1 renal
RXF 393 renal = system: RXF 393 renal
PC-3 prostate = system: PC-3 prostate
HCT-116 colon = system: HCT-116 colon
SK-OV-3 ovarian = system: SK-OV-3 ovarian
NCI-H23 lung = system: NCI-H23 lung
ACHN renal = system: ACHN renal
HCT-15 colon = system: HCT-15 colon
SR leukemia = system: SR leukemia
786-0 renal = system: 786-0 renal
SN12C renal = system: SN12C renal
SF-539 CNS = system: SF-539 CNS
HT29 colon = system: HT29 colon
HCC-2998 colon = system: HCC-2998 colon
MCF7 breast = system: MCF7 breast
IGROV1 ovarian = system: IGROV1 ovarian
UACC-257 melanoma = system: UACC-257 melanoma
OVCAR-8 ovarian = system: OVCAR-8 ovarian
MOLT-4 leukemia = system: MOLT-4 leukemia
KM12 colon = system: KM12 colon
OVCAR-4 ovarian = system: OVCAR-4 ovarian
NCI-H226 lung = system: NCI-H226 lung
SK-MEL-5 melanoma = system: SK-MEL-5 melanoma
OVCAR-5 ovarian = system: OVCAR-5 ovarian
HOP-92 NSCLC = system: HOP-92 NSCLC
BT-549 breast = system: BT-549 breast
SW-620 colon = system: SW-620 colon
A549 NSCLC = system: A549 NSCLC
NCI-H522 lung = system: NCI-H522 lung
HS 578T breast = system: HS 578T breast
HOP-62 NSCLC = system: HOP-62 NSCLC
COLO 205 colon = system: COLO 205 colon
MDA-N = system: MDA-N
MALME-3M melanoma = system: MALME-3M melanoma
A498 renal = system: A498 renal
EKVX NSCLC = system: EKVX NSCLC
HL-60(TB) leukemia = system: HL-60(TB) leukemia
M14 melanoma = system: M14 melanoma
SF-295 CNS = system: SF-295 CNS
DU-145 prostate = system: DU-145 prostate
SF-268 CNS = system: SF-268 CNS
NCI/ADR-RES ovarian = system: NCI/ADR-RES ovarian
OVCAR-3 ovarian = system: OVCAR-3 ovarian
SK-MEL-28 melanoma = system: SK-MEL-28 melanoma
NCI-H460 lung = system: NCI-H460 lung

In the case of `O=C(Nc1nnc(-c2ccc(Cl)cc2)o1)C(SC(=S)N1CCCCC1)c1ccccc1` (stereo not drawn), the TGI (CCRF-CEM leukemia) is reported as > 43.5 µM, the TGI (SNB-75 CNS) is reported as > 100 µM and the TGI (T-47D breast) is reported as > 100 µM. The TGI (U251 CNS) was > 100 µM, the TGI (MDA-MB-231 breast) was 69.8 µM and the TGI (UO-31 renal) was 27.8 µM. For the same compound, the TGI (MDA-MB-435) was 97.6 µM, the TGI (SNB-19 CNS) was > 100 µM and the TGI (TK-10 renal) was > 100 µM. For the same compound, the TGI (SK-MEL-2 melanoma) was 52.6 µM, the TGI (UACC-62 melanoma) was 31.8 µM and the TGI (K-562 leukemia) was > 88 µM. The TGI (LOX IMVI melanoma) was > 50.6 µM, the TGI (RPMI-8226 leukemia) was 38.2 µM and the TGI (CAKI-1 renal) was > 100 µM. The TGI (RXF 393 renal) was > 75.9 µM, the TGI (PC-3 prostate) was > 100 µM and the TGI (HCT-116 colon) was 34.8 µM. For the same compound, the TGI (SK-OV-3 ovarian) was > 100 µM, the TGI (NCI-H23 lung) was > 76.8 µM and the TGI (ACHN renal) was 66.5 µM. The TGI (HCT-15 colon) was > 81.5 µM, the TGI (SR leukemia) was 16.2 µM and the TGI (786-0 renal) was > 78.2 µM. For the same compound, the TGI (SN12C renal) was 41.6 µM, the TGI (SF-539 CNS) was > 84.2 µM and the TGI (HT29 colon) was > 75.3 µM. For the same compound, the TGI (HCC-2998 colon) was 76.8 µM, the TGI (MCF7 breast) was 49.9 µM and the TGI (IGROV1 ovarian) was > 65.6 µM. The TGI (UACC-257 melanoma) was > 70.4 µM, the TGI (OVCAR-8 ovarian) was > 100 µM and the TGI (MOLT-4 leukemia) was 12.3 µM. The TGI (KM12 colon) was > 100 µM, the TGI (OVCAR-4 ovarian) was > 100 µM and the TGI (NCI-H226 lung) was 85.2 µM. The TGI (SK-MEL-5 melanoma) was 32.5 µM, the TGI (OVCAR-5 ovarian) was 64.2 µM and the TGI (HOP-92 NSCLC) was > 63.3 µM. For the same compound, the TGI (BT-549 breast) was > 86.7 µM, the TGI (SW-620 colon) was > 100 µM and the TGI (A549 NSCLC) was 56.8 µM. The TGI (NCI-H522 lung) was 37.7 µM, the TGI (HS 578T breast) was 85 µM and the TGI (HOP-62 NSCLC) was > 100 µM. The TGI (COLO 205 colon) was > 100 µM, the TGI (MDA-N) was 37.2 µM and the TGI (MALME-3M melanoma) was 36.6 µM. For the same compound, the TGI (A498 renal) was 44.4 µM, the TGI (EKVX NSCLC) was 54.1 µM and the TGI (HL-60(TB) leukemia) was 26.2 µM. The TGI (M14 melanoma) was 32.1 µM, the TGI (SF-295 CNS) was > 100 µM and the TGI (DU-145 prostate) was > 100 µM. For the same compound, the TGI (SF-268 CNS) was 61.1 µM, the TGI (NCI/ADR-RES ovarian) was > 68.2 µM and the TGI (OVCAR-3 ovarian) was > 72.6 µM. The TGI (SK-MEL-28 melanoma) was 56.3 µM and the TGI (NCI-H460 lung) was 31.6 µM.
With `CCCCC(=O)OC[n+]1ccc(-c2c(COC(=O)NC(C)C)c(COC(=O)NC(C)C)c3n2CCC3)cc1` the TGI (CCRF-CEM leukemia) was > 100 µM, the TGI (SNB-75 CNS) was > 100 µM and the TGI (T-47D breast) was > 100 µM. The TGI (U251 CNS) was > 100 µM, the TGI (MDA-MB-231 breast) was > 100 µM and the TGI (UO-31 renal) was > 100 µM. For the same compound, the TGI (MDA-MB-435) was > 100 µM, the TGI (SNB-19 CNS) was > 100 µM and the TGI (TK-10 renal) was > 100 µM. For the same compound, the TGI (SK-MEL-2 melanoma) was > 100 µM, the TGI (UACC-62 melanoma) was > 100 µM and the TGI (K-562 leukemia) was > 100 µM. The TGI (LOX IMVI melanoma) was > 100 µM, the TGI (RPMI-8226 leukemia) was > 100 µM and the TGI (CAKI-1 renal) was > 100 µM. For the same compound, the TGI (RXF 393 renal) was > 100 µM, the TGI (PC-3 prostate) was > 100 µM and the TGI (HCT-116 colon) was > 100 µM. The TGI (SK-OV-3 ovarian) was > 100 µM, the TGI (NCI-H23 lung) was > 100 µM and the TGI (ACHN renal) was > 100 µM. The TGI (HCT-15 colon) was > 100 µM, the TGI (SR leukemia) was > 84.4 µM and the TGI (786-0 renal) was > 100 µM. For the same compound, the TGI (SN12C renal) was > 100 µM, the TGI (SF-539 CNS) was > 100 µM and the TGI (HT29 colon) was > 100 µM. The TGI (HCC-2998 colon) was > 100 µM, the TGI (MCF7 breast) was > 100 µM and the TGI (IGROV1 ovarian) was > 100 µM. The TGI (UACC-257 melanoma) was > 100 µM, the TGI (OVCAR-8 ovarian) was > 100 µM and the TGI (MOLT-4 leukemia) was > 80.7 µM. For the same compound, the TGI (KM12 colon) was > 100 µM, the TGI (OVCAR-4 ovarian) was > 100 µM and the TGI (NCI-H226 lung) was > 100 µM. For the same compound, the TGI (SK-MEL-5 melanoma) was > 100 µM, the TGI (OVCAR-5 ovarian) was > 100 µM and the TGI (HOP-92 NSCLC) was > 100 µM. For the same compound, the TGI (BT-549 breast) was > 100 µM, the TGI (SW-620 colon) was > 100 µM and the TGI (A549 NSCLC) was > 100 µM. For the same compound, the TGI (NCI-H522 lung) was > 100 µM, the TGI (HS 578T breast) was > 100 µM and the TGI (HOP-62 NSCLC) was > 100 µM. For the same compound, the TGI (COLO 205 colon) was > 100 µM, the TGI (MDA-N) was > 100 µM and the TGI (MALME-3M melanoma) was > 100 µM. The TGI (A498 renal) was 76.5 µM, the TGI (EKVX NSCLC) was > 100 µM and the TGI (HL-60(TB) leukemia) was > 79.8 µM. The TGI (M14 melanoma) was > 100 µM, the TGI (SF-295 CNS) was > 100 µM and the TGI (DU-145 prostate) was > 100 µM. The TGI (SF-268 CNS) was > 100 µM, the TGI (NCI/ADR-RES ovarian) was > 100 µM and the TGI (OVCAR-3 ovarian) was > 100 µM. For the same compound, the TGI (SK-MEL-28 melanoma) was > 100 µM and the TGI (NCI-H460 lung) was > 100 µM.
